Test results published in US20190300927A1, “METABOLIC ASSAY FOR BACTERIAL GROWTH AND GRAM TYPING” (SELUX DIAGNOSTICS, INC., priority 2018, published 2019).

Tests used:
[1] = tested on: clinical isolates of Pseudomonas aeruginosa; test: Resorufin fluorescence after 4 hour incubation with P. aeruginosa clinical isolates (FIG. 3); type: cell-based; details: resorufin alone 100 μM, no methylene blue, Mueller-Hinton broth, Ex560/Em590
Description: FIG. 3 Experiment: Four clinical isolates of P aeruginosa were inoculated into MHB at a 1:200 dilution from a 0.5 McFarland standard. Resorufin was added to each well at a 100 μM final concentration. Plates were incubated shaking for 4 hours at 37° C. Fluorescence was read at Ex560/Em590. Uninoculated MIHB with resorufin was included as a negative control.

gram-negative organisms = details: Fung and Miller 1973; cited from earlier work
gram-positive organisms = details: Fung and Miller 1973; cited from earlier work

Row | SMILES | remaining resorufin fluorescence after P. aeruginosa growth [1] | effect of high concentrations on gram-negative organisms (gram-negative organisms) | effect of high concentrations on gram-positive organisms (gram-positive organisms)
1 | O=c1ccc2nc3ccc(O)cc3oc-2c1 [resorufin] | does not eliminate the resorufin fluorescence |  | 
2 | CN(C)c1ccc2nc3ccc(=[N+](C)C)cc-3sc2c1 [methylene blue, Methylene blue] |  | tolerated | inhibitory
